Read-outs that look alike come from different tables or passages of the source.
Tested on: C2C12 cells
Assay: Mitochondrial uncoupling activity by oxygen consumption rate (OCR) assay, Seahorse, in presence of oligomycin
Type: cell-based, mouse
Conditions: for minimal effective concentration: Mus musculus, C2C12
Description: By definition, mitochondrial uncoupling is the decoupling of mitochondrial electron transport chain activity (mitochondrial oxidation) from ATP synthesis by mitochondrial ATP synthase. Technically, mitochondrial uncoupling activity is defined by the ability of a chemical compound to induce oxygen consumption of cells or isolated mitochondria in the presence of a mitochondrial ATP synthase inhibitor such as oligomycin. Accordingly, mitochondrial uncoupling activity was determined by oxygen consumption rate assay with a Seahorse XF96 or a Seahorse XF24 instrument following the vendor's instruction, using mouse myoblast C2C12 cells grown in a medium containing 10% fetal bovine serum. OCR was measured stepwise under the following conditions: first under normal growth conditions; then. OCR was measured after oligomycin was added to reach a final concentration of 2.5 μM); then OCR was measured after the compound was further added at varying concentrations. Finally, rotenone and antimycin A were added to confirm that the measurement was mitochondrial oxygen consumption (rotenone and […] mitochondrial electron transport chain inhibitors).
COCR-min the minimal concentration required for each compound to induce OCR in the presence of oligomycin, of disclosed compounds, was also determined by varying the final concentration of the compound added to the Seahorse OCR analysis experiment as described above (FIG. 2, varying testing compound concentration). Table 8 summarizes the mitochondrial uncoupling activity of disclosed compounds, as represented by COCR-min.

[1] = in the presence of oligomycin 2.5 μM, read-out: COCR-min: minimal concentration increasing OCR in the presence of oligomycin
[2] = minimal concentration leading to OCR increase, read-out: Activity (Cmin-OCR)

| SMILES | minimal effective concentration [1] [µM] | other results |
| --- | --- | --- |
| Cc1cc(Cl)cc(C(=O)Nc2nc3c(CN4CCOCC4)cc(C(F)(F)F)cc3s2)c1O [Example 95, 5-chloro-2-hydroxy-3-methyl-N-(4-(morpholinomethyl)-6-(trifluoro-methyl)benzo[d]thiazol-2-yl)benzamide] | < 5 | – |
| Cc1cc(Cl)cc(C(=O)Nc2nc3c(COCc4ccccc4)cc(C(F)(F)F)cc3s2)c1O [Compound 84, N-(4-((benzyloxy)methyl)-6-(trifluoromethyl)benzo[d]thiazol-2-yl)-5-chloro-2-hydroxy-3-methylbenzamide] | < 5 | – |
| Cc1cc(Cl)cc(C(=O)Nc2nc3c(C4CCN(C)CC4)cc(C(F)(F)F)cc3s2)c1O [Example 94, 5-chloro-2-hydroxy-3-methyl-N-(4-(1-methylpiperidin-4-yl)-6-(trifluoromethyl)benzo[d]thiazol-2-yl)benzamide] | < 5 | – |
| COCCOCc1cc(Cl)cc(C(=O)Nc2nc3ccc(C(F)F)cc3s2)c1O [Compound 42, 5-chloro-N-(6-(difluoromethyl)benzo[d]thiazol-2-yl)-2-hydroxy-3-((2-methoxyethoxy)methyl)benzamide] | 5 to 10 | – |
| COCCOCc1cc(Cl)cc(C(=O)Nc2ccc(C(F)(F)F)nc2Cl)c1O [Compound 47, 5-chloro-N-(2-chloro-6-(trifluoromethyl)pyridin-3-yl)-2-hydroxy-3-((2-methoxyethoxy)methyl)benzamide] | < 5 | – |
| O=C(Nc1nc2ccc(C(F)(F)F)cc2s1)c1cc(Cl)cc(CN2CCCC(C(F)(F)F)C2)c1O (stereo not drawn) [Example 61, 5-chloro-2-hydroxy-N-(6-(trifluoromethyl)benzo[d]thiazol-2-yl)-3-((3-(trifluoromethyl)piperidin-1-yl)methyl)benzamide] | < 5 | – |
| C[C@@H]1CN(Cc2cc(Cl)cc(C(=O)Nc3nc4c(CN5CCN(C)CC5)cc(C(F)(F)F)cc4s3)c2O)C[C@H](C)O1 [Example 79, 5-chloro-3-((cis-2,6-dimethylmorpholino)methyl)-2-hydroxy-N-(4-((4-methylpiperazin-1-yl)methyl)-6-(trifluoromethyl)benzo[d]thiazol-2-yl)benzamide] | < 5 | – |
| COc1ccc(COCc2cc(C(F)(F)F)cc3sc(NC(=O)c4cc(Cl)cc(C)c4O)nc23)cc1 [Compound 89, 5-chloro-2-hydroxy-N-(4-(((4-methoxybenzyl)oxy)methyl)-6-(trifluoromethyl)benzo[d]thiazol-2-yl)-3-methylbenzamide] | < 5 | – |
| Cc1cc(Cl)cc(C(=O)Nc2nc3c(COCCNS(C)(=O)=O)cc(C(F)(F)F)cc3s2)c1O [Compound 91, 5-chloro-2-hydroxy-3-methyl-N-(4-((2-(methylsulfonamido)ethoxy)methyl)-6-(trifluoromethyl)benzo[d]thiazol-2-yl)benzamide] | < 5 | – |
| O=C(Nc1nc2ccc(C(F)(F)F)cc2s1)c1cc(Cl)cc(CO)c1O [Compound 49 in U.S. Pat. No. 10,227,315, reference compound] | – | minimal effective concentration [2]: 25 µM; mitochondrial uncoupling activity (in words, compared to similar compounds of the present invention): low |
| Cc1cc(Cl)cc(C(=O)Nc2nc3c(COCc4ccc(Cl)cc4)cc(C(F)(F)F)cc3s2)c1O [Compound 82, 5-chloro-N-(4-(((4-chlorobenzyl)oxy)methyl)-6-(trifluoromethyl)benzo[d]thiazol-2-yl)-2-hydroxy-3-methylbenzamide] | < 5 | – |
| O=C(Nc1nc2ccc(C(F)(F)F)cc2s1)c1cc(Cl)cc(CN2CCCC(F)(F)C2)c1O [Example 59, 5-chloro-3-((3,3-difluoropiperidin-1-yl)methyl)-2-hydroxy-N-(6-(trifluoromethyl)benzo[d]thiazol-2-yl)benzamide] | < 5 | – |
| Cc1cc(Cl)cc(C(=O)Nc2nc3c(CN(C)C)cc(C(F)(F)F)cc3s2)c1O [Example 96, 5-chloro-N-(4-((dimethylamino)methyl)-6-(trifluoromethyl)benzo[d]thiazol-2-yl)-2-hydroxy-3-methylbenzamide] | < 5 | – |
| COCOCc1cc(Cl)cc(C(=O)Nc2nc3ccc(C(F)(F)F)cc3s2)c1O [Compound 1, 5-chloro-2-hydroxy-3-((methoxymethoxy)methyl)-N-(6-(trifluoromethyl)benzo[d]thiazol-2-yl)benzamide] | < 5 | – |
| COCCOCc1cc(Cl)cc(C(=O)Nc2ccc(C(F)(F)F)cn2)c1O [Compound 45, 5-chloro-2-hydroxy-3-((2-methoxyethoxy)methyl)-N-(5-(trifluoromethyl)pyridin-2-yl)benzamide] | 5 to 10 | – |
| CCC(=O)NCc1cc(C(F)(F)F)cc2sc(NC(=O)c3cc(Cl)cc(C)c3O)nc12 [Example 90, 5-chloro-2-hydroxy-3-methyl-N-(4-(propionamidomethyl)-6-(trifluoromethyl)benzo[d]thiazol-2-yl)benzamide] | 5 to 10 | – |
| O=C(Nc1nc2ccc(C(F)(F)F)cc2s1)c1cc(Cl)cc(CN2CCCC(F)C2)c1O (stereo not drawn) [Example 58, 5-chloro-3-((3-fluoropiperidin-1-yl)methyl)-2-hydroxy-N-(6-(trifluoromethyl)benzo[d]thiazol-2-yl)benzamide] | < 5 | – |
| C[C@@H]1CN(Cc2cc(Cl)cc(C(=O)Nc3nc4c(CNS(C)(=O)=O)cc(C(F)(F)F)cc4s3)c2O)C[C@H](C)O1 [Example 72, 5-chloro-3-((cis-2,6-dimethylmorpholino)methyl)-2-hydroxy-N-(4-(methylsulfonamidomethyl)-6-(trifluoromethyl)benzo[d]thiazol-2-yl)benzamide] | < 5 | – |
| O=C(Nc1nc2ccc(C(F)(F)F)cc2s1)c1cc(Cl)cc(CN2CCC(F)CC2)c1O [Example 60, 5-chloro-3-((4-fluoropiperidin-1-yl)methyl)-2-hydroxy-N-(6-(trifluoromethyl)benzo[d]thiazol-2-yl)benzamide] | < 5 | – |
| O=C(Nc1nc2ccc(C(F)(F)F)cc2s1)c1cc(Cl)cc(CN2CCC(O)C2)c1O (stereo not drawn) [Compound 30, 5-chloro-2-hydroxy-3-((3-hydroxypyrrolidin-1-yl)methyl)-N-(6-(trifluoromethyl)benzo[d]thiazol-2-yl)benzamide] | > 10 | – |
| COc1cc(C(F)(F)F)cc2sc(NC(=O)c3cc(Cl)cc(C)c3O)nc12 [Compound 67, 5-chloro-2-hydroxy-N-(4-methoxy-6-(trifluoromethyl)benzo[d]thiazol-2-yl)-3-methylbenzamide] | < 5 | – |
| C[C@@H]1CN(Cc2cc(Cl)cc(C(=O)Nc3nc4c(COCCNS(C)(=O)=O)cc(C(F)(F)F)cc4s3)c2O)C[C@H](C)O1 [Compound 92, 5-chloro-3-((cis-2,6-dimethylmorpholino)methyl)-2-hydroxy-N-(4-((2-(methylsulfonamido)ethoxy)methyl)-6-(trifluoromethyl)benzo[d]thiazol-2-yl)benzamide] | < 5 | – |
| COCCNCc1cc(Cl)cc(C(=O)Nc2nc3ccc(C(F)(F)F)cc3s2)c1O [Compound 22, 5-chloro-2-hydroxy-3-(((2-methoxyethyl)amino)methyl)-N-(6-(trifluoromethyl)benzo[d]thiazol-2-yl)benzamide] | < 5 | – |
| COCCOCc1cc(Cl)cc(C(=O)Nc2cnc(C(F)(F)F)nc2)c1O [Compound 21, 5-chloro-2-hydroxy-3-((2-methoxyethoxy)methyl)-N-(2-(trifluoromethyl)pyrimidin-5-yl)benzamide] | > 10 | – |
| COCCN(CCOC)Cc1cc(Cl)cc(C(=O)Nc2nc3c(CNS(C)(=O)=O)cc(C(F)(F)F)cc3s2)c1O [Example 74, 3-((bis(2-methoxyethyl)amino)methyl)-5-chloro-2-hydroxy-N-(4-(methylsulfonamidomethyl)-6-(trifluoromethyl)benzo[d]thiazol-2-yl)benzamide] | < 5 | – |
| COCCOCc1cc(C(F)(F)F)cc2sc(NC(=O)c3cc(Cl)cc(CN(CCOC)CCOC)c3O)nc12 [Compound 70, 3-((bis(2-methoxyethyl)amino)methyl)-5-chloro-2-hydroxy-N-(4-((2-methoxyethoxy)methyl)-6-(trifluoromethyl)benzo[d]thiazol-2-yl)benzamide] | < 5 | – |
| COCCN(CCOC)Cc1cc(Cl)cc(C(=O)Nc2nc3c(COCCNS(C)(=O)=O)cc(C(F)(F)F)cc3s2)c1O [Compound 93, 3-((bis(2-methoxyethyl)amino)methyl)-5-chloro-2-hydroxy-N-(4-((2-(methylsulfonamido)ethoxy)methyl)-6-(trifluoromethyl)benzo[d]thiazol-2-yl)benzamide] | < 5 | – |
| Cc1cc(Cl)cc(C(=O)Nc2nc3c(COCCN4CCN(C)CC4)cc(C(F)(F)F)cc3s2)c1O [Compound 75, 5-chloro-2-hydroxy-3-methyl-N-(4-((2-(4-methylpiperazin-1-yl)ethoxy)methyl)-6-(trifluoromethyl)benzo[d]thiazol-2-yl)benzamide] | < 5 | – |
| COCOCc1cc(Cl)cc(C(=O)Nc2nc3ccc(C(F)(F)F)cc3s2)c1O [drawing 255] | – | minimal effective concentration [2]: 2.5 µM |
